Assay results from patent US20260216347A1, “Substituted Imidazo-Based Compounds as Ligand Directed Degraders of IRAK3” (Celgene Corporation, priority 2022, published 2026).

Target: T1, IRAK3 (Homo sapiens, UniProt Q9Y616)
T1 construct: IRAK Endogenous HTRF Degradation Assay; endogenous in cells
T1 sequence (Q9Y616 1-596): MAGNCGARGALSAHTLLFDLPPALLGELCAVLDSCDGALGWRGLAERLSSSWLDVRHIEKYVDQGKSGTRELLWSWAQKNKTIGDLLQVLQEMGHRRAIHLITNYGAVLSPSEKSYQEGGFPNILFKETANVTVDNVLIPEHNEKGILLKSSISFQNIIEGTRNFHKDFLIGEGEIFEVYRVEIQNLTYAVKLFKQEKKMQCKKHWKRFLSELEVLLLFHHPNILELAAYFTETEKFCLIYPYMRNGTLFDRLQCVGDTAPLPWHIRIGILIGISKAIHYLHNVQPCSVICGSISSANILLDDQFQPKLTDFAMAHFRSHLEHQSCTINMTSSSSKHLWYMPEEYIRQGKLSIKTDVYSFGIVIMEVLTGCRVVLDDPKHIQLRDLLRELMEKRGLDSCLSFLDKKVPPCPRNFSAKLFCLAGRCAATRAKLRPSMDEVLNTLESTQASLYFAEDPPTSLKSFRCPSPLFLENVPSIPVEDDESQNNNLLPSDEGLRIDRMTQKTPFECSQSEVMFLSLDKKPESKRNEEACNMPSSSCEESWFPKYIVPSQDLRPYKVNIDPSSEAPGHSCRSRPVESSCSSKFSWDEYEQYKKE
Test: IRAK3 biochemical binding assay (LanthaScreen Eu Kinase Binding, TR-FRET)
Method: Example B3. IRAK3 Biochemical Binding Assay
The LanthaScreen® Eu Kinase Binding assay was performed as described by the vendor (ThermoFisher Scientific Waltham, MA). Briefly, 100× solutions of compound were prepared in DMSO via serial dilution of the 10 mM stock solution in a 384-well reagent plate using 3-fold intervals to achieve final concentrations. 1 μL of the compound dilution series were added to the corresponding wells of a 384-well reagent plate containing 32.3 μL of 1× buffer (50 mM HEPES pH 7.4, […], 1 mM EGTA, 0.01% Brij-35). 5 μL of the buffer diluted compounds were transferred to the corresponding wells of a 384-well assay plate. 5 μL of 3× tracer was transferred to each well of the assay plate for a final tracer concentration of 10 nM. Finally, 5 μL of the 3×Eu-Anti-GST and IRAK3 mix was transferred to each well for a final concentration of 2 nM and 10 nM respectively. Reactions were allowed to incubate for 1 hour at room temperature. TR-FRET signal of the interaction (λex340/λem 665/λem 615) was read at room temperature with a delay time of 100 ρs and an integration time of 200 ρs using an Envision plate reader. Background corrected emission signal ratios at each compound concentration were used to calculate percentage of inhibition (% Inhibition). Plots of % Inhibition versus inhibitor concentrations were fit according to a dose-response equation (Eq. 1) to generate IC50 and Hill slope values using Dotmatics software (Dotmatics, Bishops Stortford, Hertfordshire, England).
Using these assays, IC50, Dmax, EC50, and DC50 values of the following compounds were determined. Dmax is defined as the maximum percent degradation achieved and DC50 is the concentration at which 50% degradation is achieved.

IC50 | Structure (SMILES)
1 nM | Cc1cc(-c2cnc(Nc3cnn([C@H]4CC[C@H](CCN5CCN(c6cccc7c(C8CCC(=O)NC8=O)nn(C)c67)CC5)CC4)c3)c3nccn23)c(F)cc1F (stereo partly drawn) [Compound 117, 3-(7-(4-(2-((trans)-4-(4-((5-(2,4-difluoro-5-methylphenyl)imidazo[1,2-a]pyrazin-8-yl)amino)-1H-pyrazol-1-yl)cyclohexyl)ethyl)piperazin-1-yl)-1-methyl-1H-indazol-3-yl)piperidine-2,6-dione]
0.18 nM | Cc1cc(-c2cnc(Nc3cnn([C@H]4CC[C@H](CCN5CCN(c6ccc7c(C8CCC(=O)NC8=O)nn(C)c7c6)CC5)CC4)c3)c3nccn23)c(F)cc1F (stereo partly drawn) [Compound 105, 3-(6-(4-(2-((trans)-4-(4-((5-(2,4-difluoro-5-methylphenyl)imidazo[1,2-a]pyrazin-8-yl)amino)-1H-pyrazol-1-yl)cyclohexyl)ethyl)piperazin-1-yl)-1-methyl-1H-indazol-3-yl)piperidine-2,6-dione]
4 nM | COc1ccc(-c2cnc(Nc3cnn(C4CCN(CCN5CCN(c6ccc(C7CCC(=O)NC7=O)cc6)CC5)CC4)c3)c3nccn23)cc1 (stereo not drawn) [Compound 87, 3-(4-(4-(2-(4-(4-((5-(4-methoxyphenyl)imidazo[1,2-a]pyrazin-8-yl)amino)-1H-pyrazol-1-yl)piperidin-1-yl)ethyl)piperazin-1-yl)phenyl) piperidine-2,6-dione]
1.3 nM | Cc1cc(-c2cnc(Nc3cnn(C4CCN(CCN5CC6(C5)CN(c5ccc(C7CCC(=O)NC7=O)cc5)C6)CC4)c3)c3nccn23)c(F)cc1F (stereo not drawn) [Compound 97, 3-(4-(6-(2-(4-(4-((5-(2,4-difluoro-5-methylphenyl)imdazo [1,2-a]pyrazin-8-yl)amino)-1H-pyrazol-1-yl)piperidin-1-yl)ethyl)-2,6-diazaspiro[3.3]heptan-2-yl)phenyl) piperidine-2,6-dione]
380 nM | CS(=O)(=O)c1cccc(-c2cnc(Nc3cnn(C4CCN(CCN5CCN(c6ccc(C7CCC(=O)NC7=O)cc6)CC5)CC4)c3)c3nccn23)c1 (stereo not drawn) [Compound 86, 3-(4-(4-(2-(4-(4-((5-(3-(methylsulfonyl)phenyl)imidazo[1,2-a]pyrazin-8-yl)amino)-1H-pyrazol-1-yl)piperidin-1-yl)ethyl)piperazin-1-yl)phenyl) piperidine-2,6-dione]
24 nM | Cc1nc(Nc2cnn(C3CCN(CCN4CCN(c5ccc(C6CCC(=O)NC6=O)cc5)CC4)CC3)c2)c2nccn2c1C (stereo not drawn) [Compound 84, 3-(4-(4-(2-(4-(4-((5,6-dimethylimidazo[1,2-a]pyrazin-8-yl)amino)-1H-pyrazol-1-yl)piperidin-1-yl)ethyl)piperazin-1-yl)phenyl)piperidine-2,6-dione]
4 nM | O=C1CCC(c2ccc(N3CCN(CC[C@H]4CC[C@H](n5cc(Nc6ncc(C78CCCC7C8)n7ccnc67)cn5)CC4)CC3)cc2)C(=O)N1 (stereo partly drawn) [Compound 100]
15 nM | Cc1cc(-c2cnc(Nc3cnn([C@H]4CC[C@H](CCN5CCC(c6ccc(C7CCC(=O)NC7=O)cc6)CC5)CC4)c3)c3nccn23)c(F)cc1F (stereo partly drawn) [Compound 95, 3-(4-(1-(2-((trans)-4-(4-((5-(2,4-difluoro-5-methylphenyl)imidazo[1,2-a]pyrazin-8-yl)amino)-1H-pyrazol-1-yl)cyclohexyl)ethyl)piperidin-4-yl)phenyl) piperidine-2,6-dione]
16 nM | O=C1CCC(c2ccc(N3CCN(CCN4CCC(n5cc(Nc6ncc(-c7ccccc7)n7ccnc67)cn5)CC4)CC3)cc2)C(=O)N1 (stereo not drawn) [Compound 88, 3-(4-(4-(2-(4-(4-((5-phenylimidazo[1,2-a]pyrazin-8-yl)amino)-1H-pyrazol-1-yl)piperidin-1-yl)ethyl)piperazin-1-yl)phenyl) piperidine-2,6-dione]
0.86 nM | Cc1cc(-c2cnc(Nc3cnn(C4CCN(CCN5CCN(c6ccc(-n7cc(F)c(=O)[nH]c7=O)cc6)CC5)CC4)c3)c3nccn23)c(F)cc1F [Compound 110, 1-(4-(4-(2-(4-(4-((5-(2,4-difluoro-5-methylphenyl)imdazo [1,2-a]pyrazin-8-yl)amino)-1H-pyrazol-1-yl)piperidin-1-yl)ethyl)piperazin-1-yl)phenyl)-5-fluoropyrimidine-2,4(1H,3H)-dione]
0.92 nM | O=C1CCC(c2ccc(N3CCN(CCN4CCC(n5cc(Nc6ncc(-c7cnn8c7CCCC8)n7ccnc67)cn5)CC4)CC3)cc2)C(=O)N1 (stereo not drawn) [Compound 114, 3-(4-(4-(2-(4-(4-((5-(4,5,6,7-tetrahydropyrazolo[1,5-a]pyridin-3-yl)imidazo[1,2-a]pyrazin-8-y1)amino)-1H-pyrazol-1-yl)piperidin-1-yl)ethyl)piperazin-1-y1)phenyl)piperidine-2,6-dione]
2 nM | Cc1cc(-c2ccc(Nc3cnn([C@H]4CC[C@@H](CCN5CCN(c6ccc(C7CCC(=O)NC7=O)cc6)CC5)CC4)c3)c3nccn23)c(F)cc1F (stereo partly drawn) [Compound 103]
0.08 nM | CN1CCOc2cc(F)c(-c3cnc(Nc4cnn(C5CCN(CCN6CCN(c7ccc(C8CCC(=O)NC8=O)cc7)CC6)CC5)c4)c4nccn34)cc21 (stereo not drawn) [Compound 98, 3-(4-(4-(2-(4-(4-((5-(7-fluoro-4-methyl-3,4-dihydro-2H-benzo[b][1,4]oxazin-6-yl)imidazo[1,2-a]pyrazin-8-yl)amino)-1H-pyrazol-1-yl)piperidin-1-yl)ethyl)piperazin-1-yl)phenyl) piperidine-2,6-dione]
0.05 nM | Cc1cc(-c2cnc(Nc3cnn([C@H]4CCCN(CCN5CCN(c6ccc(C7CCC(=O)NC7=O)cc6)CC5)CC4)c3)c3nccn23)c(F)cc1F (single isomer, unassigned) [Compound 111]
7.6 nM | Cc1cc(-c2cnc(Nc3cnn([C@H]4CC[C@@H](CCN5CC6(C5)CN(c5ccc(C7CCC(=O)NC7=O)cc5)C6)CC4)c3)c3nccn23)c(F)cc1F (stereo partly drawn) [Compound 101]
3.2 nM | Cn1nc(C2CCC(=O)NC2=O)c2cccc(N3CCN(CCN4CCC(n5cc(Nc6ncc(C7CC7)n7ccnc67)cn5)CC4)CC3)c21 (stereo not drawn) [Compound 113, 3-(7-(4-(2-(4-(4-((5-cyclopropylimidazo[1,2-a]pyrazin-8-yl)amino)-1H-pyrazol-1-yl)piperidin-1-yl)ethyl)piperazin-1-yl)-1-methyl-1H-indazol-3-yl)piperidine-2,6-dione]
25 nM | O=C1CCC(c2ccc(N3CCN(CCN4CCC(n5cc(Nc6ncc(-c7ccc8c(c7)CC8)n7ccnc67)cn5)CC4)CC3)cc2)C(=O)N1 (stereo not drawn) [Compound 85, 3-(4-(4-(2-(4-(4-((5-(bicyclo[4.2.0]octa-1(6),2,4-trien-3-yl)imidazo[1,2-a]pyrazin-8-yl)amino)-1H-pyrazol-1-yl)piperidin-1-yl)ethyl)piperazin-1-yl)phenyl) piperidine-2,6-dione]
0.12 nM | Cc1cc(-c2cnc(Nc3cnn(C4CCN(CCN5CCC(n6cc(N7CCC(=O)NC7=O)cn6)CC5)CC4)c3)c3nccn23)c(F)cc1F [Compound 116, 1-(1-(1-(2-(4-(4-((5-(2,4-difluoro-5-methylphenyl)imdazo [1,2-a]pyrazin-8-yl)amino)-1H-pyrazol-1-yl)piperidin-1-yl)ethyl)piperidin-4-yl)-1H-pyrazol-4-yl) dihydropyrimidine-2,4(1H,3H)-dione]
0.44 nM | Cc1cc(-c2cnc(Nc3cnn([C@H]4C[C@H](CN5CCN(c6ccc(C7CCC(=O)NC7=O)cc6)CC5)C4)c3)c3nccn23)c(F)cc1F (stereo partly drawn) [Compound 99]
0.8 nM | Cc1cc(-c2cnc(Nc3cnn(C4CCN(CCN5CCN(c6ccc(-n7ccc(=O)[nH]c7=O)cc6)CC5)CC4)c3)c3nccn23)c(F)cc1F [Compound 102, 1-(4-(4-(2-(4-(4-((5-(2,4-difluoro-5-methylphenyl)imdazo [1,2-a]pyrazin-8-yl)amino)-1H-pyrazol-1-yl)piperidin-1-yl)ethyl)piperazin-1-yl)phenyl)pyrimidine-2,4(1H,3H)-dione]

Structure (SMILES) | IC50
Cc1cc(-c2cnc(Nc3cnn([C@H]4C[C@@H](CCN5CCN(c6ccc(C7CCC(=O)NC7=O)cc6)CC5)C4)c3)c3nccn23)c(F)cc1F (stereo partly drawn) [Compound 96, 3-(4-(4-(2-((cis)-3-(4-((5-(2,4-difluoro-5-methylphenyl)imidazo[1,2-a]pyrazin-8-yl)amino)-1H-pyrazol-1-yl)cyclobutyl)ethyl)piperazin-1-yl)phenyl)piperidine-2,6-dione] | 0.22 nM
